Measured values as given in PubChem BioAssay (NCI).
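Five compound concentrations were applied to cells in 96-well plates for 48 hours; endpoints were derived by simple linear interpolation of the resulting dose-response curve. Abbreviation: GI50, concentration required for 50% inhibition of growth. TGI: concentration producing complete growth inhibition.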

Tests used:
Test in all cases: growth of human tumour cells (NCI), 48 h
A498 renal = system: A498 renal
COLO 205 colon = system: COLO 205 colon
OVCAR-8 ovarian = system: OVCAR-8 ovarian
NCI-H460 lung = system: NCI-H460 lung
M14 melanoma = system: M14 melanoma
SK-OV-3 ovarian = system: SK-OV-3 ovarian
NCI-H522 lung = system: NCI-H522 lung
HT29 colon = system: HT29 colon
UACC-257 melanoma = system: UACC-257 melanoma
NCI/ADR-RES ovarian = system: NCI/ADR-RES ovarian
NCI-H23 lung = system: NCI-H23 lung
RPMI-8226 leukemia = system: RPMI-8226 leukemia
HOP-92 NSCLC = system: HOP-92 NSCLC
IGROV1 ovarian = system: IGROV1 ovarian
HCT-15 colon = system: HCT-15 colon
OVCAR-5 ovarian = system: OVCAR-5 ovarian
OVCAR-4 ovarian = system: OVCAR-4 ovarian
U251 CNS = system: U251 CNS
HL-60(TB) leukemia = system: HL-60(TB) leukemia
UO-31 renal = system: UO-31 renal
SF-268 CNS = system: SF-268 CNS
MDA-MB-231 breast = system: MDA-MB-231 breast
DU-145 prostate = system: DU-145 prostate
HOP-62 NSCLC = system: HOP-62 NSCLC
T-47D breast = system: T-47D breast
MOLT-4 leukemia = system: MOLT-4 leukemia
SK-MEL-2 melanoma = system: SK-MEL-2 melanoma
HS 578T breast = system: HS 578T breast
SK-MEL-5 melanoma = system: SK-MEL-5 melanoma
SNB-75 CNS = system: SNB-75 CNS
BT-549 breast = system: BT-549 breast
786-0 renal = system: 786-0 renal
TK-10 renal = system: TK-10 renal
SR leukemia = system: SR leukemia
CCRF-CEM leukemia = system: CCRF-CEM leukemia
CAKI-1 renal = system: CAKI-1 renal
MDA-MB-435 = system: MDA-MB-435
HCC-2998 colon = system: HCC-2998 colon
K-562 leukemia = system: K-562 leukemia
LOX IMVI melanoma = system: LOX IMVI melanoma
A549 NSCLC = system: A549 NSCLC
SN12C renal = system: SN12C renal
KM12 colon = system: KM12 colon
OVCAR-3 ovarian = system: OVCAR-3 ovarian
SF-295 CNS = system: SF-295 CNS
MCF7 breast = system: MCF7 breast
MALME-3M melanoma = system: MALME-3M melanoma
SK-MEL-28 melanoma = system: SK-MEL-28 melanoma
NCI-H226 lung = system: NCI-H226 lung
RXF 393 renal = system: RXF 393 renal
ACHN renal = system: ACHN renal
PC-3 prostate = system: PC-3 prostate
HCT-116 colon = system: HCT-116 colon
UACC-62 melanoma = system: UACC-62 melanoma
SW-620 colon = system: SW-620 colon
SNB-19 CNS = system: SNB-19 CNS

Question: How did the GI50 (A498 renal) turn out when CCCCCCCCCCCCCCNc1nc(C(=O)OCC)ncc1-c1ccc(C(F)(F)F)cc1 was run?
Answer: > 100 µM

Question: What about the TGI (A498 renal) of the same molecule?
Answer: > 100 µM

Question: And the GI50 (COLO 205 colon)?
Answer: > 100 µM

Question: What about the TGI (COLO 205 colon) of the same molecule?
Answer: > 100 µM

Question: And the GI50 (OVCAR-8 ovarian)?
Answer: > 100 µM

Question: What about the TGI (OVCAR-8 ovarian) of the same molecule?
Answer: > 100 µM

Question: And the GI50 (NCI-H460 lung)?
Answer: > 100 µM

Question: What about the TGI (NCI-H460 lung) of the same molecule?
Answer: > 100 µM

Question: What about the GI50 (M14 melanoma) of the same molecule?
Answer: > 100 µM

Question: And the TGI (M14 melanoma)?
Answer: > 100 µM

Question: And the GI50 (SK-OV-3 ovarian)?
Answer: > 100 µM

Question: What about the TGI (SK-OV-3 ovarian) of the same molecule?
Answer: > 100 µM

Question: What about the GI50 (NCI-H522 lung) of the same molecule?
Answer: > 100 µM

Question: What about the TGI (NCI-H522 lung) of the same molecule?
Answer: > 100 µM

Question: And the GI50 (HT29 colon)?
Answer: > 100 µM

Question: What about the TGI (HT29 colon) of the same molecule?
Answer: > 100 µM

Question: And the GI50 (UACC-257 melanoma)?
Answer: > 100 µM

Question: And the TGI (UACC-257 melanoma)?
Answer: > 100 µM

Question: What about the GI50 (NCI/ADR-RES ovarian) of the same molecule?
Answer: > 100 µM

Question: And the TGI (NCI/ADR-RES ovarian)?
Answer: > 100 µM

Question: And the GI50 (NCI-H23 lung)?
Answer: > 100 µM

Question: What about the TGI (NCI-H23 lung) of the same molecule?
Answer: > 100 µM

Question: What about the GI50 (RPMI-8226 leukemia) of the same molecule?
Answer: > 100 µM

Question: What about the TGI (RPMI-8226 leukemia) of the same molecule?
Answer: > 100 µM

Question: What about the GI50 (HOP-92 NSCLC) of the same molecule?
Answer: > 100 µM

Question: What about the TGI (HOP-92 NSCLC) of the same molecule?
Answer: > 100 µM

Question: And the GI50 (IGROV1 ovarian)?
Answer: > 100 µM

Question: What about the TGI (IGROV1 ovarian) of the same molecule?
Answer: > 100 µM

Question: What about the GI50 (HCT-15 colon) of the same molecule?
Answer: > 100 µM

Question: What about the TGI (HCT-15 colon) of the same molecule?
Answer: > 100 µM

Question: And the GI50 (OVCAR-5 ovarian)?
Answer: > 100 µM

Question: And the TGI (OVCAR-5 ovarian)?
Answer: > 100 µM

Question: And the GI50 (OVCAR-4 ovarian)?
Answer: 48.1 µM

Question: And the TGI (OVCAR-4 ovarian)?
Answer: > 100 µM

Question: What about the GI50 (U251 CNS) of the same molecule?
Answer: > 100 µM

Question: And the TGI (U251 CNS)?
Answer: > 100 µM

Question: And the GI50 (HL-60(TB) leukemia)?
Answer: > 100 µM

Question: What about the TGI (HL-60(TB) leukemia) of the same molecule?
Answer: > 100 µM

Question: And the GI50 (UO-31 renal)?
Answer: > 100 µM

Question: And the TGI (UO-31 renal)?
Answer: > 100 µM

Question: What about the GI50 (SF-268 CNS) of the same molecule?
Answer: > 100 µM

Question: What about the TGI (SF-268 CNS) of the same molecule?
Answer: > 100 µM

Question: What about the GI50 (MDA-MB-231 breast) of the same molecule?
Answer: > 100 µM

Question: And the TGI (MDA-MB-231 breast)?
Answer: > 100 µM

Question: And the GI50 (DU-145 prostate)?
Answer: > 100 µM

Question: What about the TGI (DU-145 prostate) of the same molecule?
Answer: > 100 µM

Question: And the GI50 (HOP-62 NSCLC)?
Answer: > 100 µM

Question: What about the TGI (HOP-62 NSCLC) of the same molecule?
Answer: > 100 µM

Question: And the GI50 (T-47D breast)?
Answer: > 100 µM

Question: And the TGI (T-47D breast)?
Answer: > 100 µM

Question: And the GI50 (MOLT-4 leukemia)?
Answer: > 100 µM

Question: And the TGI (MOLT-4 leukemia)?
Answer: > 100 µM

Question: And the GI50 (SK-MEL-2 melanoma)?
Answer: > 100 µM

Question: What about the TGI (SK-MEL-2 melanoma) of the same molecule?
Answer: > 100 µM

Question: What about the GI50 (HS 578T breast) of the same molecule?
Answer: > 100 µM

Question: And the TGI (HS 578T breast)?
Answer: > 100 µM

Question: And the GI50 (SK-MEL-5 melanoma)?
Answer: > 100 µM

Question: And the TGI (SK-MEL-5 melanoma)?
Answer: > 100 µM

Question: And the GI50 (SNB-75 CNS)?
Answer: > 100 µM

Question: What about the TGI (SNB-75 CNS) of the same molecule?
Answer: > 100 µM

Question: And the GI50 (BT-549 breast)?
Answer: > 100 µM

Question: What about the TGI (BT-549 breast) of the same molecule?
Answer: > 100 µM

Question: What about the GI50 (786-0 renal) of the same molecule?
Answer: > 100 µM

Question: And the TGI (786-0 renal)?
Answer: > 100 µM

Question: What about the GI50 (TK-10 renal) of the same molecule?
Answer: > 100 µM

Question: What about the TGI (TK-10 renal) of the same molecule?
Answer: > 100 µM

Question: And the GI50 (SR leukemia)?
Answer: > 100 µM

Question: And the TGI (SR leukemia)?
Answer: > 100 µM

Question: What about the GI50 (CCRF-CEM leukemia) of the same molecule?
Answer: > 100 µM

Question: And the TGI (CCRF-CEM leukemia)?
Answer: > 100 µM

Question: What about the GI50 (CAKI-1 renal) of the same molecule?
Answer: > 100 µM

Question: And the TGI (CAKI-1 renal)?
Answer: > 100 µM

Question: What about the GI50 (MDA-MB-435) of the same molecule?
Answer: > 100 µM

Question: And the TGI (MDA-MB-435)?
Answer: > 100 µM

Question: What about the GI50 (HCC-2998 colon) of the same molecule?
Answer: > 100 µM

Question: What about the TGI (HCC-2998 colon) of the same molecule?
Answer: > 100 µM

Question: And the GI50 (K-562 leukemia)?
Answer: > 100 µM

Question: What about the TGI (K-562 leukemia) of the same molecule?
Answer: > 100 µM

Question: And the GI50 (LOX IMVI melanoma)?
Answer: > 100 µM

Question: And the TGI (LOX IMVI melanoma)?
Answer: > 100 µM

Question: What about the GI50 (A549 NSCLC) of the same molecule?
Answer: > 100 µM

Question: What about the TGI (A549 NSCLC) of the same molecule?
Answer: > 100 µM

Question: And the GI50 (SN12C renal)?
Answer: > 100 µM

Question: What about the TGI (SN12C renal) of the same molecule?
Answer: > 100 µM

Question: And the GI50 (KM12 colon)?
Answer: > 100 µM

Question: And the TGI (KM12 colon)?
Answer: > 100 µM

Question: And the GI50 (OVCAR-3 ovarian)?
Answer: > 100 µM

Question: And the TGI (OVCAR-3 ovarian)?
Answer: > 100 µM

Question: What about the GI50 (SF-295 CNS) of the same molecule?
Answer: > 100 µM

Question: What about the TGI (SF-295 CNS) of the same molecule?
Answer: > 100 µM

Question: What about the GI50 (MCF7 breast) of the same molecule?
Answer: > 100 µM

Question: And the TGI (MCF7 breast)?
Answer: > 100 µM

Question: And the GI50 (MALME-3M melanoma)?
Answer: > 100 µM

Question: What about the TGI (MALME-3M melanoma) of the same molecule?
Answer: > 100 µM

Question: And the GI50 (SK-MEL-28 melanoma)?
Answer: > 100 µM

Question: What about the TGI (SK-MEL-28 melanoma) of the same molecule?
Answer: > 100 µM

Question: And the GI50 (NCI-H226 lung)?
Answer: > 100 µM

Question: What about the TGI (NCI-H226 lung) of the same molecule?
Answer: > 100 µM

Question: What about the GI50 (RXF 393 renal) of the same molecule?
Answer: > 100 µM

Question: What about the TGI (RXF 393 renal) of the same molecule?
Answer: > 100 µM

Question: And the GI50 (ACHN renal)?
Answer: > 100 µM

Question: And the TGI (ACHN renal)?
Answer: > 100 µM

Question: What about the GI50 (PC-3 prostate) of the same molecule?
Answer: 27.5 µM

Question: What about the TGI (PC-3 prostate) of the same molecule?
Answer: > 100 µM

Question: And the GI50 (HCT-116 colon)?
Answer: > 100 µM

Question: And the TGI (HCT-116 colon)?
Answer: > 100 µM

Question: What about the GI50 (UACC-62 melanoma) of the same molecule?
Answer: > 100 µM

Question: And the TGI (UACC-62 melanoma)?
Answer: > 100 µM

Question: And the GI50 (SW-620 colon)?
Answer: > 100 µM

Question: What about the TGI (SW-620 colon) of the same molecule?
Answer: > 100 µM

Question: And the GI50 (SNB-19 CNS)?
Answer: > 100 µM

Question: What about the TGI (SNB-19 CNS) of the same molecule?
Answer: > 100 µM
